For data set [1], the system named is blood platelet aggregation. Put plainly: Collagen-induced blood platelet aggregation, rabbit plasma (aggregometer method of BORN). It is filed as cell-based. The note with it: Oryctolagus cuniculus, 1 min, 37° C., 1 minute, maximum aggregation velocity, read-out: EC 50, collagen-induced blood platelet aggregation, rabbit plasma. The method, then: (§1) The maximum aggregation velocity was taken as the test parameter and the effective concentration (EC50) was ascertained from dosage-activity curves. Rabbit plasma was obtained by centrifugation from arterial blood treated with citrate (9 mM). 1 ml. of plasma was treated with 10 μl of test solution and the mixture was incubated at 37° C. for 1 minute, whereupon 8 μl of collagen-fibril suspension or 10 μl. of adenosine diphosphate (ADP) in 10^-4 N sodium chloride solution were added. Plasma incubated with dimethylsulfoxide served as the control. |Collagen- and ADP-induced blood platelet aggregation

Data set [2] relates to blood platelet aggregation. Put plainly: Collagen-induced blood platelet aggregation, human plasma (aggregometer method of BORN). It is filed as cell-based. The note with it: 10 min, 37° C., maximum aggregation velocity, read-out: EC 50, collagen-induced blood platelet aggregation, human plasma. The method, then:
The maximum aggregation velocity was taken as the test parameter and the effective concentration (EC50) was ascertained from dosage-activity curves. Human plasma was obtained by centifugation from venous blood treated with citrate (10.6 mM). 0.18 ml. of plasma was treated with 10 μl of an aqueous suspension of the test substance and the mixture was incubated at 37° C. for 10 minutes, whereupon the aggregation was initiated by the addition of 10 μl of collagen-fibril suspension. |Collagen- and ADP-induced blood platelet aggregation

Data set [3] has as its system blood platelet aggregation. Put plainly: ADP-induced blood platelet aggregation, rabbit plasma (aggregometer method of BORN). Format: cell-based. The following applies: Oryctolagus cuniculus, 1 min, 37° C., 1 minute, maximum aggregation velocity, read-out: EC 50, ADP-induced blood platelet aggregation, rabbit plasma. The method, then:
as §1

In the next data set the test system is conscious sheepdogs. The experiment in a line: Positive inotropic activity and heart frequency after oral administration to conscious sheepdogs. Format: in vivo. The method, then:
The positive inotropic activity was measured after the oral administration of a test substance to conscious sheepdogs. For this purpose, the animals are provided with an implanted pressure-telemetry system, so that the pressure receiver is fixed in the left ventricle. The left ventricular pressure is sent from the animal via the implanted radio transmitter and received via a suitable antenna and receiver system, demodulated and amplified. By differentiation of the ascending side of the left ventricular pressure (LVP), the maximum pressure increase rate (dLVP/dtmax) which represents the contractility parameter is calculated. Simultaneously, the heart frequency is recorded via a cardiotachograph. Under the heading inotropy in Table II, the percentage variation (Δ%) of dLVP/dtmax and the duration of activity in minutes (min) are indicated. Under the heading tachycardia in Table II, the percentage variations of the heart frequency (Δ%) after administration of the test substance and the duration of activity in minutes (min) are indicated.

Structures can show the parent of a compound that is named as a salt.

For the compound `Cc1cccc2c1N=C1NC(=O)[C@@H](C)N1C2` [D-1,5-dihydro-3,9-dimethylimidazo[2,1-b]-quinazolin-2(3H)-one hydrochloride], the EC50 in data set [1] was determined as 3 µM; in data set [2], 26 µM; in data set [3] it was 32 µM.
On to `Cc1cccc2c1CN1C(=N2)NC(=O)[C@@H]1CO` [L-1,5-dihydro-3-hydroxymethyl-6-methyl-imidazo[2,1-b]quinazoline-2(3H)-onehydrochloride], for which the EC50 in data set [2] is 14 µM.
With `Cc1ccc2c(c1)CN1C(=N2)NC(=O)[C@H]1C` [D-1,5-dihydro-3,7-dimethylimidazo[2,1-b]-quinazolin-2(3H)-one hydrochloride], the figures for the EC50 in data set [1], in data set [2] and in data set [3] were 3.1 µM, 3.4 µM and 19 µM, respectively.
For `C[C@@H]1C(=O)NC2=Nc3cccc(Cl)c3CN21.Cl` [D-6-chloro-1,5-dihydro-3-methyl-imidazo[2,1-b]quinazolin-2(3H)-one hydrochloride], in the data set with conscious sheepdogs (5 mg/kg), the “Heart frequency Min (duration of activity; tachycardia)” value (“Heart frequency Min” below) was found to be 115 min, the “Heart frequency Δ % (percentage variation; tachycardia)” value was found to be 28%, the “Inotropy Min (duration of activity)” value amounted to 145 min and the “Inotropy Δ % (percentage variation of dLVP/dtmax)” value amounted to 93%.
As to `Cc1cccc2c1CN1C(=N2)NC(=O)[C@H]1C.Cl` [D-1,5-dihydro-3,6-dimethylimidazo[2,1-b]-quinazolin-2(3H)-one hydrochloride], the EC50 in data set [1] stood at 0.19 µM. In addition, the EC50 in data set [2] was 2.3 µM. In the data set on conscious sheepdogs (10 mg/kg), the “Heart frequency Min” value was determined as 480 min, the “Heart frequency Δ % (percentage variation; tachycardia)” value was 63%, the “Inotropy Min (duration of activity)” value was found to be 440 min and the “Inotropy Δ % (percentage variation of dLVP/dtmax)” value was determined as 82%. Also, the EC50 in data set [3] was 2.2 µM.
As for `Cc1cccc2c1CN1C(=N2)NC(=O)[C@@H]1C` [L-1,5-dihydro-3,6-dimethylimidazo[2,1-b]-quinazoline-2(3H)-one hydrochloride], the EC50 in data set [1] came out at 0.93 µM; in data set [2] it was 6.2 µM; in data set [3], 11 µM.
Take `Cc1ccc2c(c1)CN1C(=N2)NC(=O)[C@@H]1C` [L-1,5-Dihydro-3,7-dimethyl-imidazo[2,1-b]quinazolin-2(3H)-one hydrochloride]: the EC50 in data set [1] stood at 22 µM; in data set [2], 33 µM; in data set [3], 77 µM.
For the compound `Cc1cccc2c1N=C1NC(=O)[C@H](C)N1C2` [L-1,5-dihydro-3,9-dimethylimidazo[2,1-b]quinazolin-2(3H)-one], the EC50 in data set [1] worked out at 18 µM. The EC50 in data set [2] turned out to be 49 µM. Moreover, in the data set with conscious sheepdogs (10 mg/kg), the “Heart frequency Min” value was determined as 100 min, the “Heart frequency Δ % (percentage variation; tachycardia)” value turned out to be 16%, the “Inotropy Min (duration of activity)” value worked out at 120 min and the “Inotropy Δ % (percentage variation of dLVP/dtmax)” value is listed as 43%. Moreover, in data set [3], the EC50 is 60 µM.

These data come from patent US4256748A, “Imidazo[2,1-b]quinazolin-2(3H)-ones and pharmaceutical compositions for treatment and prophylaxis of cardiac insufficiency and cardiac failure” (Hoffmann-La Roche Inc., priority 1977, dated 1981).
